Results as given in a melting point compilation (Tetko et al.; mined from patent text by program, amines drawn as free bases though some values may be those of a salt).

melting point	Compound
165 to 166 °C	CCOC(=O)C1=C(C)NC(C)=C(C(=O)OCC)C1c1ccccc1/C=C/C(=O)OC1CCCCC1C (stereo unspecified)
196 °C	Cc1ccccc1CC(=O)N1C[C@@H]2C(=O)CCC(c3ccccc3)(c3ccccc3)[C@@H]2C1 (racemic)
191 to 194 °C	COc1ccc(N2CCOCC2)c2sc(NC(=O)NC3CCCC3)nc12
161 to 164 °C	N#Cc1c2n(c3ccccc13)CCNCC2
83 to 85 °C	Cc1c(Cl)cccc1N=Cc1ccccc1Cl
200 to 201 °C	O=C1CCCc2ccc(OCCCCN3CCN(c4cccc5c4OCCCO5)CC3)nc2N1
204 to 206 °C	CCOC(=O)c1cn(CC(F)(F)F)c2cc3c(cc2c1=O)OCO3
184 °C	Clc1cccc(C(c2ccnc3ccccc23)n2ccnc2)c1 (stereo unspecified)
165 to 169 °C	ClCCCn1c2ccccc2c2cc(-c3nc(C4CC4)no3)ncc21
179 to 181 °C	COc1ccc(S(=O)(=O)N(Cc2ccccc2)C2(C(=O)NO)CCSCC2)cc1
204 to 208 °C	COc1ccc2nc(COc3ccc(CC(S)C(N)=O)cc3)n(C)c2c1 (stereo unspecified)
218 to 219 °C	CC(C)(C)NC(=O)C(C#N)=NO
172 to 174 °C	CCN1C(=O)C(=O)N(c2ccc(F)cc2)C1=S
175 to 177 °C	CCCc1c(C(=O)NCc2ccc3cc(OCC(=O)O)ccc3c2)cnn1-c1ccccc1
165 °C	CCCCCCCCc1c(CCC)nc2ncnn2c1N
126 to 128 °C	N#CC1=C(Nc2ccc(F)c(F)c2)CCC1
217 to 219 °C	O=C(O)CCOc1cccc2ncccc12
107 to 108 °C	O=[N+]([O-])c1cccc2c(C(F)(F)F)cccc12
175 to 176 °C	CSc1ccc(/C=C2\C=C(CCN(O)C(N)=O)c3ccccc32)cc1
108 to 112 °C	COC(=O)/C=C/c1ccc(OCCCC(=O)OC)cc1O
132 °C	COn1nnc2ccc(Cn3ccnc3)cc21
68 °C	COC(=O)Cc1ccc(OCC(C)NCC(O)c2cccc(Cl)c2)c(O)c1 (stereo unspecified)
75 to 76 °C	O=C(O)CCCc1cccc2c1OC=CO2
86 to 88 °C	FC(F)(F)c1ccc2c(c1)N=Cc1ccccc1O2
250 to 252 °C	NC(=O)Nc1ccc2c(c1)C(=O)C1(CC1)O2
146 to 147 °C	c1ccc2nn(-c3cscn3)cc2c1

melting point	Compound
195 to 198 °C	Fc1ccccc1NC1(c2nnn[nH]2)CCN(Cc2ccccc2)CC1
275 to 277 °C	CSCCn1nc(O)c2[nH]c3cc(Cl)ccc3c(=O)c2c1=O
227 °C	C=CC(C)(C)c1c(C=O)c2ccc(Cl)cc2n1COCc1ccccc1
100 to 102 °C	O=C(c1cccnc1)C(Cc1ccc(F)cc1)c1ccccc1 (stereo unspecified)
149 to 152 °C	O=Cc1ccc2c(=O)c3ccccc3ccc2c1
57.4 to 59.1 °C	CCN(CC)CCSc1ccc(/C=C/C(=O)OC)cc1[N+](=O)[O-]
177 to 178 °C	Cc1c(NC(=O)c2ccc(OCc3ccccc3)cc2)ccc2cc(CN3CCCC3)cnc12
219 to 221 °C	CCC(=O)N1Cc2cn[nH]c2-c2cc([N+](=O)[O-])ccc21
109 to 112 °C	O=C(Cn1ccnc1)c1nccs1
214 to 218 °C	C[C@]1(COc2ccc(N3CCC(OCc4ccc(OC(F)(F)F)cc4)CC3)cc2)Cn2cc([N+](=O)[O-])nc2O1
153 to 155 °C	Cc1cc(C)c(Nc2nc(C)ccc2S(=O)(=O)c2ccc(OCc3ccccc3[N+](=O)[O-])cc2)c(C)c1
277 to 280 °C	Cn1cc(-c2cc3cccnc3[nH]2)c2ccc(C(=O)NCCC(N)=O)cc21
203 to 205 °C	CONC(=O)c1[nH]c(C)c(-c2nc3ccc(C(=O)c4ccccc4)cc3[nH]2)c1C
61 to 63 °C	COc1ccc([C@H]2CCCN2[S@@](=O)C(C)(C)C)cc1
119 to 121 °C	N#CCN1CCOC(c2ccccc2)(c2ccccc2)CC1
126 to 127 °C	CC(=O)Nc1sc2c(c1C(=O)c1ccco1)CCCC2
206 to 207 °C	CCCCn1c(=O)[nH]c(=S)c2[nH]c(CC)nc21
168 to 169 °C	Cn1c(Cc2cccc(C(F)(F)F)c2)nc2c(-c3cccc(C(=O)NCCC#N)c3)cccc21
89 to 91 °C	CCOC(=O)C(C(=O)Nc1ccc(OC)cc1)(c1ccccc1)c1ccccc1
39 to 40 °C	COCOCc1c([N+](=O)[O-])cc(OC)c(OC)c1OC
71 to 74 °C	CC(C)(C#N)c1cc(Cn2cncn2)cc(-c2ccc(OS(N)(=O)=O)c(Cl)c2)c1
88 to 90 °C	Nc1cccc(Cn2c(-c3ccc(Nc4cncnc4)cc3)ccc2-c2ccccc2Cl)n1
192 to 194 °C	CCOCc1nc2c(N)nc3ccccc3c2n1CC1CCN(C)C(=O)O1 (stereo unspecified)
70 to 73 °C	COC(=O)c1cccc2c1NCC2
183 to 185 °C	CC(C)(C)C(=O)ON=C(N)CN1C(=O)C2(COc3cc4c(cc32)OCO4)c2ccccc21 (stereo unspecified)
166 to 170 °C	O=C(CCl)Nc1ccc2c(c1)CC(=O)N2

melting point	Compound
102 to 104 °C	COc1ccc2c(c1)CCC1CCN=C21 (stereo unspecified)
141 to 142 °C	CN1C(=O)CCc2c1ccc(Sc1cccc(C3(C)CC(O)CCO3)c1)c2F (stereo unspecified)
93 °C	Oc1ccc(OCCn2nc3c(n2)CCCC3)cc1
105 °C	CO[C@]1(c2cc(F)cc(Sc3ccc(/C(C)=N/O)cc3)c2)CCO[C@@H](C)C1
124 to 127 °C	CN(C)C1=Nc2cc(Br)ccc2N2CCc3cccc1c32
156 to 157 °C	Nc1cc(O)ccc1Oc1ccccc1
204 °C	CC(=O)N[C@H]1CC[C@H](CCN2CCC(c3ccc(F)c4occc34)CC2)CC1
83 to 85 °C	Cc1cc(OCc2ccccc2)cc(OCCCC(C)C)c1C(=O)O
118 to 122 °C	CCOC(=O)C(C)=CNc1ccc(OCC)c(C)n1
163 to 165 °C	CC(=O)NCC1OC(n2cc(C=CBr)c(=O)[nH]c2=O)CC1Cl (stereo unspecified)
175 °C	CC(=O)c1ccc(SC2SCC(O)C(O)C2O)cc1 (stereo unspecified)
136 °C	Nc1ccc(N2CCN(C(C(=O)NCC(F)(F)F)c3ccccc3)CC2)cc1 (stereo unspecified)
162 to 163 °C	Cc1sc(-c2cccc(F)c2)nc1O
114 to 117 °C	COC1C(O)C(CO)OC1n1cnc(C(N)=O)c1N (stereo unspecified)
178 to 180 °C	O=C(O)Cn1cc(Cc2nc3c(F)c(F)cc(F)c3s2)c2ccc(N3CCOCC3)cc21
179 to 181 °C	Nc1nc(NCCN2CCCCC2)nc(-c2cc(Cl)ccc2Cl)n1
159 to 160 °C	COc1cc2ncc(F)c(Cl)c2cc1OC
201 °C	O=C(O)Cc1coc2cc(OCc3cc(-c4ccc(C(F)(F)F)cc4)on3)ccc12
157 to 160 °C	Cc1cc(Oc2ccc(S(C)(=O)=O)nc2)cc2cc(C3=NCC(CC(=O)N4CCS(=O)CC4)S3)[nH]c12 (stereo unspecified)
93 to 95 °C	COC(=O)C(=Cc1cc(OC)cc(OC)c1)c1ccc(Oc2ccc(CO)cc2)cc1
200 °C	CC(C)Nc1ncnc2sc([N+](=O)[O-])cc12
136 °C	N#Cc1ccc(NN)cc1F
154 to 155 °C	COc1ccc2cccc(NC(C)=O)c2c1
159 °C	Cn1ncc2c(=O)n3c(nc21)SC(c1ccccc1)C3c1ccccc1 (stereo unspecified)
112 to 114 °C	O=C(Cl)Sc1nnnn1-c1ccccc1
102 to 103 °C	CC(C)Oc1ccc(CCCOc2nn(C)cc2CC(=O)O)c(OCc2ccc(Cl)cc2Cl)c1

melting point	Compound
134 to 141 °C	N#Cc1cc(C=O)ccc1-n1cncn1
165 to 167 °C	CNC(=S)NCCCSc1cncc(NC(N)=NCC(F)(F)F)n1
260 °C	Cc1cc(C2CCC2)n2nc(S(=O)(=O)Nc3c(Cl)cccc3Cl)nc2n1
148 to 149 °C	CC(c1cc(C#N)ncn1)C(O)(Cn1cncn1)c1ccc(F)cc1F (stereo unspecified)
109 to 111 °C	CN1CCN(C(=NNc2ccccc2Cl)c2ccccc2F)CC1
79 to 81 °C	COc1ccc2cc([C@H](C)C(=O)OCC(=O)N(C)CC(=O)NCCO[N+](=O)[O-])ccc2c1
140 to 142 °C	CCNS(=O)(=O)CC(=O)C1=C(C)NC(C)=C(C(=O)OC(C)C)C1c1cccc([N+](=O)[O-])c1 (stereo unspecified)
232 to 233 °C	N#Cc1ccc2c(c1)CCc1nn(-c3ccccn3)c(O)c1-2
178 to 179 °C	CC1NC(=O)NN=C1c1ccc(NCCCN)cc1 (stereo unspecified)
211 °C	CC(=O)Nc1ccc(S(=O)(=O)c2cc(Br)nc(Br)c2)cc1
142 to 144 °C	CN1CCN(c2ccc(/C=C/c3ccccc3F)cc2)CC1
126 to 129 °C	O=C1c2ccccc2C(=O)N1[C@H]1C=C[C@@H](O)CC1 (racemic)
147 to 149 °C	CC(C)Cc1cnc(N)c([N+](=O)[O-])c1
240 °C	CCC(C(=O)O)c1cccc(C(=O)c2cc3cc(C(=O)O)sc3s2)c1 (stereo unspecified)
202 to 203 °C	O=C(CC(C(=O)O)c1ccccc1)Nc1cccc(/C=C/c2nc(C3CCC3)cs2)c1 (stereo unspecified)
156 to 158 °C	Cc1ccc(C)n1C(C)c1nccc(I)c1F (stereo unspecified)
122 to 124 °C	O=C1NC(c2ccccc2)C(C(=O)NCCO[N+](=O)[O-])O1 (stereo unspecified)
132 to 133 °C	N#Cc1ccc(N2CCN(Cc3cn4cc(Cl)ccc4n3)CC2)c(F)c1
92 to 93 °C	N#Cc1ccc(CCO)nc1
183 to 189 °C	COc1nc(CNC(=O)NS(=O)(=O)c2ccccc2S(=O)(=O)N(C)C)nc(OC)n1
189 to 190 °C	CC(=O)c1ccc(Cc2c(Cl)cc(N3N=CCNC3=O)cc2Cl)cc1
196 to 198 °C	COC(=O)c1c(C)nc(C)c(C(=O)OCC2CCCO2)c1-c1cccc(NC(C)=O)c1 (stereo unspecified)
229 °C	O=CNc1nc(-c2cccnc2)c(Cl)s1
144 °C	CCNC(=O)C1(C/C=C/c2ccccc2)c2ccccc2-c2ccccc21

Compound	melting point
Cc1nc2ccc(F)cc2c(=O)n1-c1ccccc1Cl	137 to 138 °C
C=Cn1cc(C(=O)OCC)c(=O)c2cc(F)c(N3CCNCC3)cc21	208 to 210 °C
COC12CC(C(C)COC(=O)c3[nH]c(C)cc3C)CN(C)C1Cc1cn(C)c3cccc2c13 (stereo unspecified)	128 to 130 °C
CN1Cc2c(Cl)ncn2-c2ccccc2C1=S	198 °C
